Source: US20240293405A1, “(1H-PYRROLO[2,3-B]PYRIDIN-1-YL)PYRIMIDIN-2-YL-AMINO-PHENYL-ACRYLAMIDE INHIBITORS OF EGFR FOR USE IN THE TREATMENT OF BRAIN TUMORS” (Dana-Farber Cancer Institute, Inc., priority 2021, published 2024)
Values joined by “and” are separate entries in the source; they are usually repeats but may differ in a detail not shown here. Identical values can stand only once. “Also recorded” adds a separate entry of the source. Like-named read-outs stand apart in the source and are kept apart here.

Assays:
[1] = molecular target: T1, EGFRvIII (Homo sapiens, UniProt P00533, DELINS30-297G); experiment: EGFRvIII phosphorylation in 293-EGFRvIII cells (western blot); assay type: cell-based; design: expressed in transfected cells; conditions: 6 hours, read-out: IC50 on EGFRvIII phosphorylation (pEGFRvIII1068)
[2] = Oral dog dose-range toxicity study; assay type: in vivo
Protocol: In the dog dose-range study, Compound 1 was given to male and female beagle dogs orally by gavage either once (30, 100, 600, 1000 mg/kg) or once daily for 14 days (30, 100, 300 mg/kg/day).
The HNSTD was estimated to be 100 mg/kg/day in this study.

[3] = Brain and plasma exposure after single oral dose; assay type: in vivo, Sprague Dawley rats; conditions: own data, oral dosing in rats
Text: Genfitinib concentrations were quantitated by LC-MS/MS from brain and plasma from Group 1 animals.

[4] = system: PC9GR4 cells (Ex19del/T790M); conditions: PC9GR4 cell line; Wang 2020; read-out: IC50, growth inhibition; cited from earlier work
[5] = Cardiovascular function (telemetry); assay type: in vivo, dog
Protocol: This arrythmia was not associated with maximum plasma concentration (Cmax) or Tmax of either parent or metabolite. No definitive link to the test article could be identified. Given the unexplained reversible arrythmia in this high-dose (100 mg/kg) telemetry dog, routine electrocardiogram (ECG) monitoring in Phase 1 is recommended.

[6] = Pharmacokinetics in rats (IV, PO); assay type: in vivo, rat; conditions: for bioavailability: independent of dose
Text: Exposure was generally dose proportional.

[7] = Comparative metabolism and metabolic stability in hepatocytes; assay type: in vitro ADME, human, monkey, dog, rat and mouse
Text: Compound 2 was a major demethylated active metabolite in all species and with the exception of a minor metabolite, M48 in human hepatocytes, all human metabolites were represented in the rat and/or dog, the toxicology species.

[8] = molecular target: T1, EGFRvIII; experiment: EGFRvIII phosphorylation in U251-EGFRvIII cells (western blot); assay type: cell-based; design: expressed in transfected cells; host or cells: U251 (human GBM cell line), retroviral transduction; conditions: 20 hours, read-out: IC50 on EGFRvIII phosphorylation (pEGFRvIII1068)
Text: Anti-a-Tubulin antibody was purchased from Sigma.
(§1) In parallel, the conventional human GBM U251 cell line was used as a surrogate model for both in vitro and in vivo studies. U251 cells were engineered to stably express EGFRvIII (U251-EGFRvIII) via retroviral-mediated gene transfer.

[9] = molecular target: ALK, EGFR and FLT3 mutants (Homo sapiens, UniProt P00533); experiment: Targeted kinase binding constants, mutant kinases (summary); conditions: read-out: mutant kinase binding (Kd) for several EGFR single and double mutants
Protocol: Compound 1 and Compound 2 (major metabolite) were evaluated in a panel of 468 human kinases and disease relevant mutant variants. Compound 1 and Compound 2 bound to few non-mutant kinases at <1% of control. […] While there is some variability between Compound 1 and Compound 2, it is clear that both compounds are very effective at binding to a large panel of mutant kinases. […] Binding constant to wild type EGFR was 4.9 nM.

[10] = Skin toxicity in mice (visual observation); assay type: in vivo; conditions: Compound 1 10-50 mg/kg/day vs osimertinib 10-25 mg/kg/day
Text: . (osmertinib, FIG. 6A; Compound 1, FIG. 6B).

[11] = molecular target: T2, P-gp (Homo sapiens, UniProt P08183); experiment: P-glycoprotein inhibition (digoxin transport); assay type: in vitro ADME
T2 construct: expressed in transfected cells; host or cells: MDCKII-MDR1 cells
Text: Further understanding of DDI risk will await definition of Phase 2 doses and exposures.

[12] = system: U251-EGFRvIII cells; experiment: Viability/proliferation of U251-EGFRvIII cells; assay type: cell-based, human
Protocol: Cells were seeded in 96-well plates at a density of 1,000 cells per well and treated with two-fold serial dilutions of compounds with a starting concentration of 20 μM. Cell viability was assessed after three days of treatment by CellTiter-Glo (Promega). Curve fitting analysis and IC50 value determination were performed using GraphPad Prism 8.
as §1

[13] = Oral rat 4-week toxicity study with toxicokinetics; assay type: in vivo, Sprague-Dawley rats
Protocol: Compound 1 (0, 10, 30, and 100 mg/kg/day) was given orally, once daily by gavage to male and female Sprague-Dawley rats for up to 28 days. Morbidity, associated with marked body weight loss, necessitated termination of dosing in the high-dose group on Days 12/13. At this time, 5/sex in the high-dose group were taken to necropsy and 5/sex were started on recovery for the remainder of the study.
There were no obvious sex differences or accumulation (Table 13).
Major histological findings at the interim necropsy (100 mg/kg) included generalized lymphoid depletion, pulmonary edema/inflammation and testicular seminiferous tubule degeneration. All findings except testicular degeneration were reversible (˜14 days) in this study; the reversibility period was not long enough to assess reversibility of testicular changes. […] The STD10 was 30 mg/kg.

[14] = system: phosphorylated EGFR and cell viability; experiment: In vitro GBM studies, summary (phosphorylated EGFR and cell viability); assay type: cell-based; conditions: GBM models; read-out: IC50 range in in vitro studies targeting decreases in phosphorylated EGFR and cell viability
Text: Compound 1, a third-generation tyrosine kinase inhibitor, is under development for GBM (Wang 2020) Compound 1 binds covalently to its target.

T1 sequence (P00533 with tags, fused parts or gaps DELINS30-297G): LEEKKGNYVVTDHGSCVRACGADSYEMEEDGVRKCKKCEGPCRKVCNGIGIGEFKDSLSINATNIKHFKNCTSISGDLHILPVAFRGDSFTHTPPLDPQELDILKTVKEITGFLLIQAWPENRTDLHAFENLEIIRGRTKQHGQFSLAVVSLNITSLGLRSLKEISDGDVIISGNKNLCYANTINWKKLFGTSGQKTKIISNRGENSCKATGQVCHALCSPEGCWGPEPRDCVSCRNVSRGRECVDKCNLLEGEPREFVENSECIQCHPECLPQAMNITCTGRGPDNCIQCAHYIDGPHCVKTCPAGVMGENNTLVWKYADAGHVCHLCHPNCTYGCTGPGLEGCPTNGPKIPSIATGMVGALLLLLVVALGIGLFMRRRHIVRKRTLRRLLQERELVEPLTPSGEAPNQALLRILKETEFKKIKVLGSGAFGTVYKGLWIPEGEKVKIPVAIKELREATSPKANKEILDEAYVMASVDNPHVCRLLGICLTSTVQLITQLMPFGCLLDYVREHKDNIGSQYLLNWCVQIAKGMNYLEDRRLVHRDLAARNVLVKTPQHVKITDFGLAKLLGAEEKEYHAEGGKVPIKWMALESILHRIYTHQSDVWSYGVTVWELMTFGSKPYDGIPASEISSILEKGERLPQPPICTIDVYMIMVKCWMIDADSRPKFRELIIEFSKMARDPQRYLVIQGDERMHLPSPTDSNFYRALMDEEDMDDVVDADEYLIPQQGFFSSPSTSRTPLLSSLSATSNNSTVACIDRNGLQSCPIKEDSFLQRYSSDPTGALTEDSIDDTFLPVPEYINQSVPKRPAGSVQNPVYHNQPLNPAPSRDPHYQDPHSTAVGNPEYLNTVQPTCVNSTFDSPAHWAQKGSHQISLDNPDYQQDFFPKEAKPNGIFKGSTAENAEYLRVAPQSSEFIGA
T2 sequence (P08183 whole entry): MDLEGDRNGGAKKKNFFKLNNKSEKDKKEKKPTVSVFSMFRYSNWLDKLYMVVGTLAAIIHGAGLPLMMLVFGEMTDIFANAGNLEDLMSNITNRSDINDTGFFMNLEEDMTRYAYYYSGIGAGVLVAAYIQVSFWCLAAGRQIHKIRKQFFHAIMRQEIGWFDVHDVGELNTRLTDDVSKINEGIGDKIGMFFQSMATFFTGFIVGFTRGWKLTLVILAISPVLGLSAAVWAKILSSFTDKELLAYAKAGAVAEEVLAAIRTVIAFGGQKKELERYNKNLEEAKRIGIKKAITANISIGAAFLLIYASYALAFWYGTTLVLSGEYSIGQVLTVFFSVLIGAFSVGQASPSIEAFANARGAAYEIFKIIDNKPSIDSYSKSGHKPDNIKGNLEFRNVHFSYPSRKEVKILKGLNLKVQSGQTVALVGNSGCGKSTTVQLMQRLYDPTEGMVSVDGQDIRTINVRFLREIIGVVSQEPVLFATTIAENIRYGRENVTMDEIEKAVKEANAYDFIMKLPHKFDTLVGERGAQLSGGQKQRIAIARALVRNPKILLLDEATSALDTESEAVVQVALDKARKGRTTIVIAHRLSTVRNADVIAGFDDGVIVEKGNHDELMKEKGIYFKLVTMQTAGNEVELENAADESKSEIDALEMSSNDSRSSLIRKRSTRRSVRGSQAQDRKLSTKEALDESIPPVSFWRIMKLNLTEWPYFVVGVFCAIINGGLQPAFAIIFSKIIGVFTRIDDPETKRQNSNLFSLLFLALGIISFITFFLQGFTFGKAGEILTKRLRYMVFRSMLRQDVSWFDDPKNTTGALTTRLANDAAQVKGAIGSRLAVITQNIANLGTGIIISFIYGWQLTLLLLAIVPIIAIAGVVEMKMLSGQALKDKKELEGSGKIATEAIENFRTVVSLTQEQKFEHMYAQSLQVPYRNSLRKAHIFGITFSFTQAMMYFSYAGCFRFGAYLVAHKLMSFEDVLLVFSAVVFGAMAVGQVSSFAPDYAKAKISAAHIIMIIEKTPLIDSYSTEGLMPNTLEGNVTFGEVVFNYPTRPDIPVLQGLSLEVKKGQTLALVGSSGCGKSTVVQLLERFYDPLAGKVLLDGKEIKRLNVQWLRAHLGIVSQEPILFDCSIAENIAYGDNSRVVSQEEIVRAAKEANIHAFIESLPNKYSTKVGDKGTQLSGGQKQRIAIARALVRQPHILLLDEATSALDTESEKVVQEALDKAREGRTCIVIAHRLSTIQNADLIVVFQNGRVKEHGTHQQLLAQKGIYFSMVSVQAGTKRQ
Sequence of ALK, EGFR and FLT3 mutants (P00533 25-1210 limits assumed, change not shown): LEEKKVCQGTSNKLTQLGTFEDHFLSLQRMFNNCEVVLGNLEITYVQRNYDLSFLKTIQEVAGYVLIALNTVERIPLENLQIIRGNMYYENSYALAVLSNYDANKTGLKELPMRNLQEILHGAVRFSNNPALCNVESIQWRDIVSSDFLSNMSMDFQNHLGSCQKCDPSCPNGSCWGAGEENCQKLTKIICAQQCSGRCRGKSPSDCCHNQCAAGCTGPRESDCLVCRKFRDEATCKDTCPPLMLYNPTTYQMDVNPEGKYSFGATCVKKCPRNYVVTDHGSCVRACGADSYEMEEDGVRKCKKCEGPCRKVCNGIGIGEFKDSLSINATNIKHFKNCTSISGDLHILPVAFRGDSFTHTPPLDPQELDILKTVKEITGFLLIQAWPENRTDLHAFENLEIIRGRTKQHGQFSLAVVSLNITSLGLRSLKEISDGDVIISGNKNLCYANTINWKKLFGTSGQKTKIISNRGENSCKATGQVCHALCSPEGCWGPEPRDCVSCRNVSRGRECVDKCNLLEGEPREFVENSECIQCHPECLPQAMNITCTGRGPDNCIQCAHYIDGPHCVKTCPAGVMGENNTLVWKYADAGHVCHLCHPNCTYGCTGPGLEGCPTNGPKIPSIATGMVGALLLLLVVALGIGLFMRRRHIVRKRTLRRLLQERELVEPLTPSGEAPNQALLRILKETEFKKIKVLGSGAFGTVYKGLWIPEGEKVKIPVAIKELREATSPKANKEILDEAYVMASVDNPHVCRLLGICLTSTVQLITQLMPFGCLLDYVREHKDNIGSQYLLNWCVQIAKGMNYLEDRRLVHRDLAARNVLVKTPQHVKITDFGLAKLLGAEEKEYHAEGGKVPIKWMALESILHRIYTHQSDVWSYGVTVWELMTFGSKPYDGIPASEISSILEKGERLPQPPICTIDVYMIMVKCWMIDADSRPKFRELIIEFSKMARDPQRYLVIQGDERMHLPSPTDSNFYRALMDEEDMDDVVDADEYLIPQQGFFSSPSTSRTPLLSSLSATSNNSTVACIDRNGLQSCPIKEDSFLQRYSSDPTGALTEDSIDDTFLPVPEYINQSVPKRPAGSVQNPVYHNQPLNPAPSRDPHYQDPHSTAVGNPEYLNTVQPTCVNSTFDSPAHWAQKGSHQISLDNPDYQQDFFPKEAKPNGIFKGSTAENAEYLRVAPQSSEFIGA

Structure (SMILES): C=CC(=O)Nc1cc(Nc2nccc(-n3ccc4cccnc43)n2)c(OC)cc1N(C)CCN(C)C [Compound 1, N-(5-((4-(1H-pyrrolo[2,3-b]pyridin-1-yl)pyrimidin-2-yl)amino)-2-((2-(dimethylamino)ethyl)(methyl)amino)-4-methoxyphenyl)acrylamide]
- IC50 [1]: 190 nM
- tolerability of a single oral dose ([2]; 30 to 1000 mg/kg): well tolerated
- HNSTD ([2]; 14 days oral, estimated): 100 mg/kg/day
- Brain Penetration (% of B/P ratio in preclinical model) [3]: 2830% (oral)
- IC50 [4]: 3.66 nM
- dogs with reversible ventricular conduction disturbance ([5]; 100 mg/kg, 10 to 24 hours after dose): 1 of 4
- QTc, blood pressure and cardiac intervals ([5]; doses up to 100 mg/kg): no QTc signals; also recorded: no adverse effects on blood pressure or cardiac intervals
- Cmax ([5]; plasma, dog, 100 mg/kg Compound 1 PO, M38 as metabolite, read-out: estimated single-dose Cmax): 2620 ng/mL and 5.4 µM
- clearance [6]: moderately high clearance; also recorded: moderately high-clearance; also recorded: Moderate high-clearance
- volume of distribution [6]: large volume of distribution
- clearance ([6]; listed as Compound 11): relatively high clearance rate
- bioavailability ([6]; rat, in vivo, po): ~50%
- half-life ([6]; rat, plasma, Compound 2 as metabolite): ~5 h
- Tmax ([6]; rat, plasma, po, Compound 2 as metabolite): ~5 h
- bioavailability ([6]; rat, plasma, po): 50%
- metabolic stability ([7]; hepatocytes, species comparison): greatest in human hepatocytes
- number of metabolites detected in hepatocytes ([7]; human, monkey, dog, rat and/or mouse hepatocytes): 22
- IC50 [8]: 174 nM and 170 nM
- Kd [9]: < 1 nM
- skin toxicity (visual observation) [10]: Lower Skin Toxicity than Osimertinib
- P-gp inhibition [11]: No P-gp inhibition
- IC50 ([11]; read-out: IC50, P-gp mediated transport of digoxin): > 30000 nM
- IC50 ([12]; Homo sapiens, values of the text and Table 9, read-out: IC50, viability of U251-EGFRvIII cells): 1520 nM
- IC50 ([12]; Homo sapiens, Table 2, read-out: IC50 on U251-EGFRvIII cell proliferation): 1480 nM
- cell survival, fold less than that of erlotinib ([12]; U251-EGFRvIII cells): 9 fold
- cell survival, fold less than that of gefitinib ([12]; U251-EGFRvIII cells): 13 fold
- IC50 ([12]; values of the text and Table 9, read-out: IC50, viability of U251-EGFRvIII cells): 1500 nM
- NOAEL at 28 days ([13]; both sexes, Sprague-Dawley, in vivo, oral, 4-week Rat toxicology): 10 mg/kg
- NOEL for testicular lesions ([13]; both, Sprague-Dawley, rat, in vivo): 10 mg/kg
- STD10 ([13]; both, Sprague-Dawley, rat, in vivo, po): 30 mg/kg
- NOEL for myocardial risk ([13]; rat): 100 mg/kg
- toxicity at 10 mg/kg ([13]; rat, in vivo, po, 10 mg/kg): No toxicity
- IC50 [14]: 170 to 3280 nM
